From the NIST ThermoML archive (doi:10.1021/je400250u)

How the values were obtained:
[1] = xn = mol fraction of the nth substance listed; conditions: 100 kPa, Liquid; for viscosity: Capillary tube (Ostwald / Ubbelohde) method; for mass density: Vibrating tube method
[2] = refractive index (Na D-line) (dimensionless); xn = mol fraction of the nth substance listed; conditions: 101 kPa, Liquid, Standard Abbe refractometry

C1CC[C@H]2CCCC[C@@H]2C1 [trans-decahydronaphthalene] + CCCCCCCCCC
Conditions | mass density, [1] [kg/m3] | refractive index, [2] | viscosity, [1] [mPa·s]
293.15 K, x1 = 0.1035 | 743.5 | – | 0.98
293.15 K, x1 = 0.2016 | 755.54 | – | 1.035
293.15 K, x1 = 0.3001 | 768 | – | 1.099
293.15 K, x1 = 0.3994 | 781.01 | – | 1.175
293.15 K, x1 = 0.5036 | 795.1 | – | 1.272
293.15 K, x1 = 0.6062 | 809.53 | – | 1.388
293.15 K, x1 = 0.6989 | 822.98 | – | 1.514
293.15 K, x1 = 0.7891 | 836.46 | – | 1.649
293.15 K, x1 = 0.8949 | 852.8 | – | 1.848
293.15 K, x1 = 1 | 869.78 | – | 2.112
298.15 K, x1 = 0.1035 | 739.74 | 1.4144 | 0.91
298.15 K, x1 = 0.2016 | 751.79 | 1.4192 | 0.958
298.15 K, x1 = 0.3001 | 764.27 | 1.4243 | 1.019
298.15 K, x1 = 0.3994 | 777.28 | 1.4301 | 1.087
298.15 K, x1 = 0.5036 | 791.38 | 1.4355 | 1.174
298.15 K, x1 = 0.6062 | 805.81 | 1.4414 | 1.28
298.15 K, x1 = 0.6989 | 819.26 | 1.4471 | 1.394
298.15 K, x1 = 0.7891 | 832.75 | 1.4524 | 1.514
298.15 K, x1 = 0.8949 | 849.09 | 1.4592 | 1.694
298.15 K, x1 = 1 | 866.07 | 1.4662 | 1.925
303.15 K, x1 = 0.1035 | 735.97 | – | 0.848
303.15 K, x1 = 0.2016 | 748.02 | – | 0.89
303.15 K, x1 = 0.3001 | 760.51 | – | 0.946
303.15 K, x1 = 0.3994 | 773.52 | – | 1.01
303.15 K, x1 = 0.5036 | 787.63 | – | 1.09
303.15 K, x1 = 0.6062 | 802.07 | – | 1.185
303.15 K, x1 = 0.6989 | 815.53 | – | 1.285
303.15 K, x1 = 0.7891 | 829.02 | – | 1.396
303.15 K, x1 = 0.8949 | 845.37 | – | 1.555
303.15 K, x1 = 1 | 862.34 | – | 1.769
308.15 K, x1 = 0.1035 | 732.17 | 1.4099 | 0.794
308.15 K, x1 = 0.2016 | 744.24 | 1.4153 | 0.834
308.15 K, x1 = 0.3001 | 756.74 | 1.4204 | 0.884
308.15 K, x1 = 0.3994 | 769.76 | 1.4256 | 0.941
308.15 K, x1 = 0.5036 | 783.88 | 1.4317 | 1.013
308.15 K, x1 = 0.6062 | 798.32 | 1.4371 | 1.101
308.15 K, x1 = 0.6989 | 811.79 | 1.4431 | 1.197
308.15 K, x1 = 0.7891 | 825.29 | 1.4484 | 1.293
308.15 K, x1 = 0.8949 | 841.64 | 1.4553 | 1.436
308.15 K, x1 = 1 | 858.61 | 1.4618 | 1.628
313.15 K, x1 = 0.1035 | 728.37 | – | 0.744
313.15 K, x1 = 0.2016 | 740.45 | – | 0.778
313.15 K, x1 = 0.3001 | 752.95 | – | 0.828
313.15 K, x1 = 0.3994 | 765.99 | – | 0.881
313.15 K, x1 = 0.5036 | 780.11 | – | 0.947
313.15 K, x1 = 0.6062 | 794.56 | – | 1.024
313.15 K, x1 = 0.6989 | 808.04 | – | 1.113
313.15 K, x1 = 0.7891 | 821.54 | – | 1.201
313.15 K, x1 = 0.8949 | 837.9 | – | 1.33
313.15 K, x1 = 1 | 854.88 | – | 1.505
318.15 K, x1 = 0.1035 | 724.55 | 1.4055 | 0.702
318.15 K, x1 = 0.2016 | 736.64 | 1.4112 | 0.734
318.15 K, x1 = 0.3001 | 749.16 | 1.4162 | 0.777
318.15 K, x1 = 0.3994 | 762.2 | 1.4211 | 0.826
318.15 K, x1 = 0.5036 | 776.34 | 1.4271 | 0.887
318.15 K, x1 = 0.6062 | 790.8 | 1.4336 | 0.959
318.15 K, x1 = 0.6989 | 804.28 | 1.4389 | 1.032
318.15 K, x1 = 0.7891 | 817.79 | 1.4448 | 1.119
318.15 K, x1 = 0.8949 | 834.16 | 1.4518 | 1.237
318.15 K, x1 = 1 | 851.14 | 1.4581 | 1.394
323.15 K, x1 = 0.1035 | 720.72 | – | 0.662
323.15 K, x1 = 0.2016 | 732.82 | – | 0.696
323.15 K, x1 = 0.3001 | 745.35 | – | 0.732
323.15 K, x1 = 0.3994 | 758.4 | – | 0.777
323.15 K, x1 = 0.5036 | 772.55 | – | 0.834
323.15 K, x1 = 0.6062 | 787.02 | – | 0.896
323.15 K, x1 = 0.6989 | 800.51 | – | 0.966
323.15 K, x1 = 0.7891 | 814.04 | – | 1.046
323.15 K, x1 = 0.8949 | 830.41 | – | 1.154
323.15 K, x1 = 1 | 847.4 | – | 1.295
